In patent US8697709B2, “Fused ring heteroaryl kinase inhibitors” (The Regents of the University of California, priority 2008, dated 2014):
Numbering of substitutions follows the chain as printed. Read-outs that look alike come from different tables or passages of the source.

Key:
Type in all cases: biochemical
c-Src = c-Src (Gallus gallus, UniProt P00523); assay: In vitro kinase assay (32P peptide phosphorylation), WT Src
Abl = target: T1, Abl (Homo sapiens, UniProt P00519); assay: In vitro kinase assay (32P peptide phosphorylation), WT Abl; conditions: read-out: IC50 WT Abl
T1 sequence (P00519 242-493 limits assumed): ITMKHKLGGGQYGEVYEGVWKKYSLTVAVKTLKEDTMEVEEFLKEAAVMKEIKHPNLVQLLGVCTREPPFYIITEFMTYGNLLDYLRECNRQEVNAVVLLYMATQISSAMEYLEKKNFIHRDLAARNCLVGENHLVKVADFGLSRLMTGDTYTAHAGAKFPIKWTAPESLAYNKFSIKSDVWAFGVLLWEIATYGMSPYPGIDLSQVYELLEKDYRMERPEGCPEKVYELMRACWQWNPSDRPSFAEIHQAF

T315A Abl = target: T2, T315A Abl (Homo sapiens, UniProt P00519, T315A); assay: In vitro kinase assay, T315A Abl; conditions: Table 1a
T2 sequence (P00519 242-493 T315A limits assumed): T1 sequence (P00519 242-493 limits assumed) with T74A
Experimental: (§1) Kinase reactions were initiated by the addition of […] cold ATP supplemented with 5 mCi γ^32P ATP and allowed to proceed at room temperature (RT). At 10 minutes […] of the reactions were spotted onto phosphocellulose sheets (P81, Whatman) and subsequently soaked in wash buffer (1.0% (v/v) phosphoric acid). The sheets were washed five times in buffer, dried, and transferred radioactivity was measured by phosphorimaging using a TyphoonTM scanner (Molecular Dynamics). Radioactive counts were quantified using ImageQuantTM software, and titration data were fit to a sigmoidal dose response to derive IC50 values using the Prism® software package. Dose responses were based on a 12 point inhibitor titration, using 1⁄3 dilutions starting from […]. Experiments were completed 2-4 times to derive mean values.

T338G Src = T338G Src (Gallus gallus, UniProt P00523, T338G); assay: In vitro kinase assay, T338G Src
Experimental: as §1

[1] = Table 1b, read-out: IC50 WT Src
[2] = Table 1a, read-out: IC50 WT Src
[3] = unphosphorylated kinase domain, 100 mM ATP, read-out: IC50 for c-Src

| IC50 (c-Src; [1]) | IC50 (c-Src; [2]) | IC50 (T315A Abl) | IC50 (T338G Src; Table 1a) | Compound | further results |
| --- | --- | --- | --- | --- | --- |
| < 1 µM | – | – | – | Nc1ncnc2c1c(-c1ccc(NC(=O)Nc3cccc(C(F)(F)F)c3)cc1)nn2[C@H]1CCOC1 [AD66, 1-(4-(4-amino-1-((S)-tetrahydrofuran-3-yl)-1H-pyrazolo[3,4-d]pyrimidin-3-yl)phenyl)-3-(3-(trifluoromethyl)phenyl)urea] | IC50 (Abl; Table 1b): < 1 µM |
| – | 1 to 5 µM | 1 to 5 µM | > 5 µM | Cn1nc(Cc2ccc(NC(=O)c3cccc(C(F)(F)F)c3)cc2)c2c(N)ncnc21 [AD7] | – |
| – | 1 to 5 µM | – | – | Nc1ncnc2c1c(-c1ccc(NC(=O)Nc3cccc(C(F)(F)F)c3)cc1)nn2[C@@H]1CCN(C(=O)Nc2cccc(C(F)(F)F)c2)C1 [AD73c, (R)-3-(4-amino-3-(4-(3-(3-(trifluoromethyl)phenyl)ureido)phenyl)-1H-pyrazolo[3,4-d]pyrimidin-1-yl)-N-(3-(trifluoromethyl)phenyl)pyrrolidine-1-carboxamide] | IC50 (Abl; Table 1a): > 5 µM |
| – | 1 to 5 µM | < 1 µM | < 1 µM | CC(C)(C)n1nc(Cc2cccc(NC(=O)c3cccc(C(F)(F)F)c3)c2)c2c(N)ncnc21 [AD25] | – |
| > 5 µM | – | – | – | Nc1ncnc2c1c(-c1ccc(NC(=O)c3cccc(C(F)(F)F)c3)cc1)nn2[C@@H]1CCOC1 [AD68, N-(4-(4-amino-1-((R)-tetrahydrofuran-3-yl)-1H-pyrazolo[3,4-d]pyrimidin-3-yl)phenyl)-3-(trifluoromethyl)benzamide] | IC50 (Abl; Table 1b): > 5 µM |
| – | < 1 µM | – | – | CC(C)(C)OC(=O)N1CC[C@H](n2nc(-c3ccc(NC(=O)Nc4cccc(C(F)(F)F)c4)cc3)c3c(N)ncnc32)C1 [AD78, (S)-tert-butyl 3-(4-amino-3-(4-(3-(3-(trifluoromethyl)phenyl)ureido)phenyl)-1H-pyrazolo[3,4-d]pyrimidin-1-yl)pyrrolidine-1-carboxylate] | IC50 (Abl; Table 1a): 1 to 5 µM |
| – | 1 to 5 µM | 1 to 5 µM | 1 to 5 µM | Nc1ncnc2c1c(Cc1cccc(NC(=O)c3cccc(C(F)(F)F)c3)c1)nn2Cc1ccccc1 [BB5, N-(3-((4-amino-1-benzyl-1H-pyrazolo[3,4-d]pyrimidin-3-yl)methyl)phenyl)-3-(trifluoromethyl)benzamide] | – |
| – | > 5 µM | < 1 µM | < 1 µM | Nc1ncnc2c1c(Cc1cccc(NC(=O)c3cccc(C(F)(F)F)c3)c1)nn2CC1CC1 [BB13] | – |
| – | > 5 µM | < 1 µM | 1 to 5 µM | CC(C)n1nc(Cc2cccc(NC(=O)c3cccc(C(F)(F)F)c3)c2)c2c(N)ncnc21 [AD35] | – |
| – | < 1 µM | < 1 µM | < 1 µM | Nc1ncnc2c1c(Cc1cccc(NC(=O)Nc3cccc(C(F)(F)F)c3)c1)nn2CC1CC1 [BB14] | – |
| < 1 µM | – | – | – | Nc1ncnc2c1c(-c1ccc(NC(=O)c3cccc(C(F)(F)F)c3)cc1)nn2[C@H]1CCOC1 [AD67, N-(4-(4-amino-1-((S)-tetrahydrofuran-3-yl)-1H-pyrazolo[3,4-d]pyrimidin-3-yl)phenyl)-3-(trifluoromethyl)benzamide] | IC50 (Abl; Table 1b): 1 to 5 µM |
| – | < 1 µM | < 1 µM | < 1 µM | Nc1ncnc2c1c(Cc1cccc(NC(=O)Nc3cccc(C(F)(F)F)c3)c1)nn2C1CCCC1 [BB10, 1-(3-((4-amino-1-cyclopentyl-1H-pyrazolo[3,4-d]pyrimidin-3-yl)methyl)phenyl)-3-(3-(trifluoromethyl)phenyl)urea] | selectivity towards c-Src over Abl (c-Src; ratio of IC50 values c-Src vs Abl): approximately 5 fold; IC50 (Abl; Table 1a): 1 to 5 µM |
| – | 1 to 5 µM | 1 to 5 µM | 1 to 5 µM | Cn1nc(Cc2ccc(NC(=O)Nc3cccc(C(F)(F)F)c3)cc2)c2c(N)ncnc21 [AD8] | – |
| – | > 5 µM | < 1 µM | 1 to 5 µM | Cn1nc(Cc2cccc(NC(=O)c3cccc(C(F)(F)F)c3)c2)c2c(N)ncnc21 [AD15] | – |
| > 5 µM | – | – | – | Nc1ncnc2c1c(-c1ccc(NC(=O)c3cccc(C(F)(F)F)c3)cc1)nn2[C@@H]1CCNC1 [AD72, N-(4-(4-amino-1-((R)-pyrrolidin-3-yl)-1H-pyrazolo[3,4-d]pyrimidin-3-yl)phenyl)-3-(trifluoromethyl)benzamide] | IC50 (Abl; Table 1b): > 5 µM |
| 1 to 5 µM | – | – | – | CC(C)n1nc(-c2cccc(NC(=O)Nc3cccc(C(F)(F)F)c3)c2)c2c(N)ncnc21 [AD53] | IC50 (T338G Src; Table 1b): < 1 µM |
| 1 to 5 µM | – | – | – | Nc1ncnc2c1c(-c1ccc(NC(=O)Nc3cccc(C(F)(F)F)c3)cc1)nn2[C@@H]1CCOC1 [AD69, 1-(4-(4-amino-1-((R)-tetrahydrofuran-3-yl)-1H-pyrazolo[3,4-d]pyrimidin-3-yl)phenyl)-3-(3-(trifluoromethyl)phenyl)urea] | IC50 (Abl; Table 1b): > 5 µM |
| – | < 1 µM | 1 to 5 µM | < 1 µM | Nc1ncnc2c1c(Cc1cccc(NC(=O)c3cccc(C(F)(F)F)c3)c1)nn2C1CCCC1 [BB9] | – |
| > 5 µM | – | – | – | Nc1ncnc2c1c(-c1ccc(NC(=O)c3cccc(C(F)(F)F)c3)cc1)nn2[C@H]1CCNC1 [AD70, N-(4-(4-amino-1-((S)-pyrrolidin-3-yl)-1H-pyrazolo[3,4-d]pyrimidin-3-yl)phenyl)-3-(trifluoromethyl)benzamide] | IC50 (Abl; Table 1b): > 5 µM |
| 1 to 5 µM | – | – | – | CC(C)n1nc(-c2cccc(NC(=O)c3cccc(C(F)(F)F)c3)c2)c2c(N)ncnc21 [AD52] | IC50 (T338G Src; Table 1b): < 1 µM |
| – | < 1 µM | – | – | CC(C)(C)OC(=O)N1CC[C@@H](n2nc(-c3ccc(NC(=O)Nc4cccc(C(F)(F)F)c4)cc3)c3c(N)ncnc32)C1 [AD79, (R)-tert-butyl 3-(4-amino-3-(4-(3-(3-(trifluoromethyl)phenyl)ureido)phenyl)-1H-pyrazolo[3,4-d]pyrimidin-1-yl)pyrrolidine-1-carboxylate] | IC50 (Abl; Table 1a): 1 to 5 µM |
| – | 1 to 5 µM | – | – | Nc1ncnc2c1c(-c1ccc(NC(=O)Nc3cccc(C(F)(F)F)c3)cc1)nn2[C@H]1CCN(C(=O)Nc2cccc(C(F)(F)F)c2)C1 [AD71c, (S)-3-(4-amino-3-(4-(3-(3-(trifluoromethyl)phenyl)ureido)phenyl)-1H-pyrazolo[3,4-d]pyrimidin-1-yl)-N-(3-(trifluoromethyl)phenyl)pyrrolidine-1-carboxamide] | IC50 (Abl; Table 1a): > 5 µM |
| 1 to 5 µM | – | – | – | CC(C)n1nc(-c2ccc(NC(=O)c3cccc(C(F)(F)F)c3)cc2)c2c(N)ncnc21 [AD56] | IC50 (T338G Src; Table 1b): < 1 µM |
| – | 1 to 5 µM | < 1 µM | 1 to 5 µM | Nc1ncnc2c1c(Cc1cccc(NC(=O)Nc3cccc(C(F)(F)F)c3)c1)nn2Cc1ccccc1 [BB6, 1-(3-((4-amino-1-benzyl-1H-pyrazolo[3,4-d]pyrimidin-3-yl)methyl)phenyl)-3-(3-(trifluoromethyl)phenyl)urea] | – |
| > 5 µM | – | – | – | Nc1ncnc2c1c(-c1ccc(NC(=O)c3cccc(C(F)(F)F)c3)cc1)nn2CCCO [AD65, N-(4-(4-amino-1-(3-hydroxypropyl)-1H-pyrazolo[3,4-d]pyrimidin-3-yl)phenyl)-3-(trifluoromethyl)benzamide] | IC50 (Abl; Table 1b): > 5 µM |
| – | 1 to 5 µM | < 1 µM | < 1 µM | CC(C)n1nc(Cc2cccc(NC(=O)Nc3cccc(C(F)(F)F)c3)c2)c2c(N)ncnc21 [AD36, 1-(3-((4-amino-1-isopropyl-1H-pyrazolo[3,4-d]pyrimidin-3-yl)methyl)phenyl)-3-(3-(trifluoromethyl)phenyl)urea] | IC50 (Abl; Table 1a): 1 to 5 µM |
| < 1 µM | – | – | – | Nc1ncnc2c1c(-c1ccc(NC(=O)Nc3cccc(C(F)(F)F)c3)cc1)nn2CCCO [AD64, 1-(4-(4-amino-1-(3-hydroxypropyl)-1H-pyrazolo[3,4-d]pyrimidin-3-yl)phenyl)-3-(3-(trifluoromethyl)phenyl)urea] | IC50 (Abl; Table 1b): > 5 µM |
| – | 1 to 5 µM | 1 to 5 µM | < 1 µM | Cn1nc(Cc2cccc(NC(=O)Nc3cccc(C(F)(F)F)c3)c2)c2c(N)ncnc21 [AD16, 1-(3-((4-amino-1-methyl-1H-pyrazolo[3,4-d]pyrimidin-3-yl)methyl)phenyl)-3-(3-(trifluoromethyl)phenyl)urea] | IC50 (c-Src; [3]): ~6.2 µM; IC50 (Abl; Table 1a): 1 to 5 µM |
| – | < 1 µM | < 1 µM | < 1 µM | CC(C)(C)n1nc(Cc2cccc(NC(=O)Nc3cccc(C(F)(F)F)c3)c2)c2c(N)ncnc21 [AD26, 1-(3-((1-tert-butyl-4-amino-1H-pyrazolo[3,4-d]pyrimidin-3-yl)methyl)phenyl)-3-(3-(trifluoromethyl)phenyl)urea] | IC50 (c-Src; [3]): 0.48 µM; IC50 (Abl; Table 1a): < 1 µM |
